Activity calls are given as the source filed them. No cut-off for these calls is given here.
Legend:
[1] = Inhibition of hedgehog signaling (unknown origin) expressed in mouse NIH/3T3 cells by Gli-dual-luciferase reporter assay; format: cell-based; conditions: NIH3T3
Medulloblastoma cell = assay: Antitumor activity against mouse ptch+/- and p53-/- medulloblastoma cells allografted in athymic nude mouse assessed as tumor growth inhibition at 40 mg/kg, bid administered via oral gavage measured twice per week by microcaliper; format: functional, organism-based
[2] = Inhibition of cell proliferation in mouse ptch+/- and p53-/- medulloblastoma cells after 36 hrs by Brdu assay; format: functional
[3] = Cmax in Sprague-Dawley rat plasma at 10 mg/kg, po; format: ADME, organism-based; parameters: dose 10 mg/kg, route oral
[4] = Tmax in Sprague-Dawley rat plasma at 10 mg/kg, po; format: ADME, organism-based
[5] = Oral bioavailability in Sprague-Dawley rat plasma at 10 mg/kg; format: ADME, organism-based
Mus musculus = assay: Toxicity in athymic nude mouse allografted with mouse ptch+/- and p53-/- medulloblastoma cells assessed as body weight loss at 40 mg/kg, bid administered via oral gavage; format: organism-based; conditions: in vivo
[6] = AUC (0 to infinity) in Sprague-Dawley rat plasma at 10 mg/kg, po; format: ADME, organism-based; parameters: dose 10 mg/kg, route oral, time infinity
[7] = AUC (0 to infinity) in Sprague-Dawley rat plasma at 2 mg/kg, iv; format: ADME, organism-based; parameters: dose 2 mg/kg, time infinity, route intravenous
[8] = Systemic clearance in Sprague-Dawley rat plasma at 2 mg/kg, iv; format: ADME, organism-based
[9] = Volume of distribution at steady state in Sprague-Dawley rat plasma at 2 mg/kg, iv; format: ADME, organism-based; conditions: read-out: Vdss
[10] = Half life in Sprague-Dawley rat plasma at 2 mg/kg, iv; format: ADME, organism-based

Row | IC50 [1] [nM] | Structure (SMILES) | also measured
1 | 2.3 | CS(=O)(=O)c1ccc(C(=O)Nc2ccc(Cl)c(-c3ccccn3)c2)c(Cl)c1 [VISMODEGIB] | –
2 | 9.66 | CC(C)(O)c1ccc(N2CCC(Nc3nnc(Cc4ccccc4)c4ccccc34)C2)nc1 (racemic) | –
3 | 3.28 | CC(C)(O)c1ccc(NC2CCN(c3nnc(Cc4ccccc4)c4ccccc34)C2)nc1 (racemic) | –
4 | 6.66 | CN(c1ccc(C(C)(C)O)cn1)C1CCN(c2nnc(Cc3ccccc3)c3ccccc23)CC1 | –
5 | 2.97 | CCC(O)(CC)c1ccc(NC2CCN(c3nnc(Cc4ccccc4)c4ccccc34)C2)nc1 (racemic) | –
6 | 3.91 | CCC(O)(CC)c1ccc(N2CCC(Nc3nnc(Cc4ccccc4)c4ccccc34)C2)nc1 (racemic) | –
7 | 7.1 | CC(C)(O)c1ccc(N2CCN(c3nnc(Cc4ccccc4)c4ccccc34)CC2)nc1 | TGI (Medulloblastoma cell): Active; IC50 [2]: 44.6 nM
8 | > 1000 | CC(C)(O)c1ccc(NC2CCCN(c3nnc(Cc4ccccc4)c4ccccc34)C2)nc1 (racemic) | –
9 | > 1000 | CCOC(=O)c1ccc(NC2CCCN(c3nnc(Cc4ccccc4)c4ccccc34)C2)nc1 (racemic) | –
10 | > 1000 | CC(C)(O)c1ccc(N2CC3(C2)CN(c2nnc(Cc4ccccc4)c4ccccc24)C3)nc1 | –
11 | > 1000 | CC(=O)c1ccc(N(C)C2CCN(c3nnc(Cc4ccccc4)c4ccccc34)CC2)nc1 | –
12 | 10.3 | CCC(O)(CC)c1ccc(NC2CCN(c3nnc(Cc4ccccc4)c4ccccc34)CC2)nc1 | –
13 | 648 | CC(C)(O)c1ccc(OC2CN(c3nnc(Cc4ccccc4)c4ccccc34)C2)nc1 | –
14 | 2.45 | CC(=O)c1ccc(NC2CCN(c3nnc(Cc4ccccc4)c4ccccc34)CC2)nc1 | –
15 | 0.58 | CC(C)(O)c1ccc(NC2CCN(c3nnc(Cc4ccccc4)c4ccccc34)CC2)nc1 | Cmax [3]: 950 nM; Tmax [4]: 2 h; bioavailability [5]: 40.1%; TGI (Medulloblastoma cell): Active; Activity (Mus musculus): Non-toxic; AUC(0-inf) [6]: 3.28 µM·h; IC50 [2]: 38 nM; AUC(0-inf) [7]: 1.64 µM·h; clearance [8]: 42.1 mL/min/kg; Vd [9]: 2.16 L/kg; half-life [10]: 1.03 h
16 | 45.7 | CCOC(=O)c1ccc(N2CCC(Nc3nnc(Cc4ccccc4)c4ccccc34)C2)nc1 (racemic) | –
17 | 8.76 | CCOC(=O)c1ccc(NC2CCN(c3nnc(Cc4ccccc4)c4ccccc34)C2)nc1 (racemic) | –

Source: ChEMBL document CHEMBL3808323, “Synthesis and evaluation of novel benzylphthalazine derivatives as hedgehog signaling pathway inhibitors” (Bioorg Med Chem Lett, 2016)
